In article PMC5069304 (Clinical Pharmacokinetics, 2016):

What was measured:
[1] = Population pharmacokinetic analysis of plasma liraglutide; type: in vivo, human
[2] = Exposure assessment for dose proportionality, phase II dose-finding trial; type: in vivo, human
[3] = 60 kg subject vs reference subject weighing 100 kg
[4] = 234 kg subject vs reference subject weighing 100 kg

CL/F lower than in reference subject [1, 3]: 29%
liraglutide exposure higher than in reference subject [1, 3]: 41%
CL/F higher than in reference subject [1, 4]: 78%
liraglutide exposure lower than in reference subject [1, 4]: 44%
liraglutide exposure lower in subjects with T2DM than in normoglycaemic subjects ([1]; confounded by trial (all T2DM subjects from Trial 2)): 16%
higher exposure in Trial 1 than in Trial 2 ([1]; liraglutide 3.0 mg): 29%
geometric mean of the individual apparent clearance estimates ([2]; Trial 3): 0.93 L/h
SMILES: CCCCCCCCCCCCCCCC(=O)N[C@@H](CCC(=O)NCCCC[C@H](NC(=O)[C@H](C)NC(=O)[C@H](C)NC(=O)[C@H](CCC(N)=O)NC(=O)CNC(=O)[C@H](CCC(=O)O)NC(=O)[C@H](CC(C)C)NC(=O)[C@H](Cc1ccc(O)cc1)NC(=O)[C@H](CO)NC(=O)[C@H](CO)NC(=O)[C@@H](NC(=O)[C@H](CC(=O)O)NC(=O)[C@H](CO)NC(=O)[C@@H](NC(=O)[C@H](Cc1ccccc1)NC(=O)[C@@H](NC(=O)CNC(=O)[C@H](CCC(=O)O)NC(=O)[C@H](C)NC(=O)[C@@H](N)Cc1cnc[nH]1)[C@@H](C)O)[C@@H](C)O)C(C)C)C(=O)N[C@@H](CCC(=O)O)C(=O)N[C@@H](Cc1ccccc1)C(=O)N[C@H](C(=O)N[C@@H](C)C(=O)N[C@@H](Cc1c[nH]c2ccccc12)C(=O)N[C@@H](CC(C)C)C(=O)N[C@H](C(=O)N[C@@H](CCCNC(=N)N)C(=O)NCC(=O)N[C@@H](CCCNC(=N)N)C(=O)NCC(=O)O)C(C)C)[C@@H](C)CC)C(=O)O [liraglutide, Liraglutide]
liraglutide exposure lower in males than in females ([1]; comparable body weight): 24%
liraglutide exposure higher in females than males ([1]; same/comparable body weight): 32%
dose proportionality of model-derived AUC by dose ([2]; obese individuals, 1.2, 1.8, 2.4, 3.0 mg once daily, week 20): supported dose proportionality of liraglutide up to and including 3.0 mg
